Read-outs that look alike come from different tables or passages of the source.
Legend:
[1] = format: in vivo; conditions: for Duration of release from the ring: delayed release ring
Procedure: The rate of hydration of the intravaginal device depends on many factors, including the rate of water penetration into the polymer. The rate of water penetration can be modulated by the osmotic pressure within the polymer. The osmotic pressure can be modulated by adding salt (NaCl, KCl, etc) to the formulation of the drug.
Estradiol and GnRH can be formulated as described herein. Yet, additional salt is added (300 mmol).

[2] = Expected characteristics of Ring A / Ring B formulations (Table II); format: in vivo; conditions: 21 days of release
From the text: In an alternate embodiment of this aspect of the invention, the two formulations described above (the LHRH/estrogenic steroid formulation and LHRH/estrogenic/progestational steroid formulation) are combined in one drug delivery device, which is designed to remain in the vagina of the female for the entire menstrual cycle. In this embodiment, the drug delivery device comprises at least one cylindrical unitary segment per hormonal formulation, or, alternatively, at least one cylindrical unitary segment per active ingredient (i.e., LHRH, sex steroid, or sex steroid modulator). The choice of polymeric material and the ratio of polymeric material to LHRH/sex steroid/sex steroid modulator are preselected for each segment to provide the appropriate release kinetics for the individual steroids and/or steroidal formulations. By selecting the polymeric material based on its release properties and adjusting the ratio of polymeric material to drug, the method of the present invention provides the pre-set timed delivery of LHRH, estrogenic steroid, and progestational steroid at the appropriate phase of the menstrual cycle to achieve the desired contraceptive effect. For example, this “combined” device would release LHRH and/or its agonists or antagonists continuously for 30 days in combination with an estrogenic compound.

[3] = endogenous, normal menstrual cycle, cited from earlier work; for Tmax: phase of cycle
[4] = estradiol administered at 100 μg/day; cited from earlier work
[5] = Effect of cellulosics (Methocel) on in vitro release from EVA (Example 5); format: physicochemical; conditions: EVA with 5% or 25% Methocel, PBS pH 6.10:ethanol 70:30, 37° C.
From the text: Also, varying amounts of a commercially available cellulosic, Methocel® (Dow Chemicals, Co., Midland, Mich.) were incorporated into the mixtures to evaluate the effect of cellulosics on release kinetics. […] The solutions were slowly emulsified into a methylene chloride solution containing EVA. The resulting emulsions were solvent-casted into a mold, which was then cooled on dry ice. Following sublimation, the […] were cut into 1 cm×1 cm samples, and placed in scintillation vials, to which 0.1 M phosphate buffered saline (pH 6.10) and ethanol were added in a 70:30 ratio. The vials were placed in a 37° C. incubator on a shaker rotating at 100 RPM. The buffer solution was replaced at predetermined time points. […] Next, the release kinetics were determined by plotting the cumulative release amounts as a function of time.

[6] = format: physicochemical; conditions: for In vitro release kinetics: EVA ring, 70:30 PBS:EtOH pH 6, 37° C., 14 to 21 day period
Procedure: At the indicated time points media was collected and measured by HPLC on an Agilent 1100 Series HPLC (Agilent, Forest City, Calif.). […] Results were calculated based on the area under the curve compared to a 5 point calibration curve. Results were expressed as the cumulative release in μg released over the course of the experiment.

[7] = In vitro release from double-sided EVA disc (Example 6); format: physicochemical; conditions: 70:30 PBS:EtOH pH 6, 37° C.
Procedure: Also, the EVA/drug mixtures were combined to form a double-sided disc, comprising estradiol on one side and progesterone on the other. After drying, the discs were evaluated for their release kinetics. […] At the indicated time points, 100% of the media was collected for measurement and 100 ml of release media was replaced. The media was measured by an Agilent 1100 Series HPLC (Agilent). […] Results were calculated based on the area under the curve compared to a 5 point calibration curve and depicted in FIG. 7 as the cumulative percent released.

[8] = system: endogenous luteinizing hormone (LH); test: Intravaginal administration of GnRH/hydrogel to Rhesus monkeys, serum endogenous LH (Example 7); format: in vivo; conditions: 10 mg GnRH in 2 g hydrogel, 48 hours

Q: For `CCNC(=O)[C@@H]1CCCN1C(=O)[C@H](CCCNC(=N)N)NC(=O)[C@H](CC(C)C)NC(=O)[C@@H](Cc1c[nH]c2ccccc12)NC(=O)[C@H](Cc1ccc(O)cc1)NC(=O)[C@H](CO)NC(=O)[C@H](Cc1c[nH]c2ccccc12)NC(=O)[C@H](Cc1c[nH]cn1)NC(=O)[C@@H]1CCC(=O)N1` [D-Trp6-Pro9-Net-GnRH], which “Duration of release from the ring” value [1] is on record?
A: 28 days

Q: Which “Drug Circulation Level” value ([2]; Ring A) does the source give for `C[C@]12CC[C@@H]3c4ccc(O)cc4CC[C@H]3[C@@H]1CC[C@@H]2O` [Estradiol, estradiol] here?
A: 100 pg/mL

Q: And the “Drug Circulation Level” value ([2]; Ring B)?
A: 100 pg/mL

Q: What about the Cmax [3] of the same molecule?
A: 0.5 ng/mL

Q: What about the “Steady State Serum Concentration” value [3] of the same molecule?
A: 50 to 500 pg/mL

Q: And the Tmax [3]?
A: Midcycle

Q: And the Serum level produced [4]?
A: approximately 100 pg/ml

Q: With `CC(=O)[C@H]1CC[C@H]2[C@@H]3CCC4=CC(=O)CC[C@]4(C)[C@H]3CC[C@]12C` [Progesterone, progesterone] as the molecule, how does the “Duration of release from the ring” value [1] read?
A: 4 days

Q: And the “Time after which release begins” value ([1]; segment without salt)?
A: 14 days

Q: What about the “In vitro release kinetics with addition of Methocel” value [5] of the same molecule?
A: pseudo zero order release kinetics

Q: What about the “Drug Circulation Level” value ([2]; Ring B) of the same molecule?
A: 6000 pg/mL

Q: And the “In vitro release kinetics” value [6]?
A: stable zero order release kinetics

Q: What about the Cmax [3] of the same molecule?
A: 35 ng/mL

Q: What about the “Steady State Serum Concentration” value [3] of the same molecule?
A: 2000 to 6000 pg/mL

Q: And the T1/2 [3]?
A: 12 h

Q: And the Tmax [3]?
A: Midluteal

Q: And the “In vitro release kinetics” value [7]?
A: independent bi-phasic release kinetics

Q: With “p-Glu-His-Trp-Ser-Tyr-Gly-Leu-Arg-Pro-Gly-NH2 [GnRH]” as the molecule, how does the “Effect on endogenous LH levels” value [8] read?
A: produces elevated levels of endogenous LH

Q: And the “Serum level in the circulation that the delivery rates are capable of producing” value [6]?
A: 3 to 6 ng/mL

Q: What about the “In vitro release kinetics” value [6] of the same molecule?
A: stable zero order release kinetics

Q: And the “Time for which the ring sustains adequate flux rates” value ([6]; not told)?
A: at least 21 days
